{
  "source": "ChEMBL document CHEMBL4196124",
  "about": "“Reverse Hydroxamate Inhibitors of Bone Morphogenetic Protein 1” (ACS Med Chem Lett, 2018)",
  "key": {"Tolloid-like protein 2": {"target": "T1, Tolloid-like protein 2 (Homo sapiens, UniProt Q9Y6L7)", "T1 sequence (Q9Y6L7 whole entry)": "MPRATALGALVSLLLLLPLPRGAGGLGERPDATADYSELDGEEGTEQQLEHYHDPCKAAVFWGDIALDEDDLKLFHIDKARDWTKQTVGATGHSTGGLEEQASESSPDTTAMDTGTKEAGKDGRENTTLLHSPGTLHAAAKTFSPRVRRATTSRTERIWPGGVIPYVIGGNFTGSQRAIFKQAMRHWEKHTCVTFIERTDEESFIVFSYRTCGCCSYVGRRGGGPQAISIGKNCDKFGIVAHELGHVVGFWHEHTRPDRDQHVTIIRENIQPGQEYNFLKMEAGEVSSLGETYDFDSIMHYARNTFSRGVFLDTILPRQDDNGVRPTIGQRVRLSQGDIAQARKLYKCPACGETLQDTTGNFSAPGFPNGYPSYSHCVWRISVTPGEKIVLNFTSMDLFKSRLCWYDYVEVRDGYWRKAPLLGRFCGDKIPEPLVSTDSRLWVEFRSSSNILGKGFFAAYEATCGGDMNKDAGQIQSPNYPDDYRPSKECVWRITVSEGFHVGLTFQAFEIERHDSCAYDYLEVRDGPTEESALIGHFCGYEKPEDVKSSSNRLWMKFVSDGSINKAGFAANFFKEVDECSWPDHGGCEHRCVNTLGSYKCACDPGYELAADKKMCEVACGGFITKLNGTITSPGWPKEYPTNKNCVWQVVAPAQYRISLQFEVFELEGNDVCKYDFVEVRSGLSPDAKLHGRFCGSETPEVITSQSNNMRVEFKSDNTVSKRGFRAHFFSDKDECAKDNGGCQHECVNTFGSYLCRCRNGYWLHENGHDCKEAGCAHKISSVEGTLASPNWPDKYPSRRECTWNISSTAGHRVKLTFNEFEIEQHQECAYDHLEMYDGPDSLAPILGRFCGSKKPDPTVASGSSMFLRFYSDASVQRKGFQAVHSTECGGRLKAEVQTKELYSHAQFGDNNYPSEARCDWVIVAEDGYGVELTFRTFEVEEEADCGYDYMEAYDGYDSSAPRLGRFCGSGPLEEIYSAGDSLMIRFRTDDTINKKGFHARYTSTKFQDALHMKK", "experiment": "Inhibition of recombinant human N-terminal 6His-tagged TLL2 (26 to 1015 residues) expressed in CHO cells using ((5-FAM)-ELIDQYDVQRDDSSDGSLED-K(5,6 TAMRA)-CONH2) as substrate preincubated for 10 mins followed by substrate addition measured after 60 mins"}, "Tolloid-like protein 1": {"target": "T2, Tolloid-like protein 1 (Homo sapiens, UniProt O43897)", "T2 sequence (O43897 whole entry)": "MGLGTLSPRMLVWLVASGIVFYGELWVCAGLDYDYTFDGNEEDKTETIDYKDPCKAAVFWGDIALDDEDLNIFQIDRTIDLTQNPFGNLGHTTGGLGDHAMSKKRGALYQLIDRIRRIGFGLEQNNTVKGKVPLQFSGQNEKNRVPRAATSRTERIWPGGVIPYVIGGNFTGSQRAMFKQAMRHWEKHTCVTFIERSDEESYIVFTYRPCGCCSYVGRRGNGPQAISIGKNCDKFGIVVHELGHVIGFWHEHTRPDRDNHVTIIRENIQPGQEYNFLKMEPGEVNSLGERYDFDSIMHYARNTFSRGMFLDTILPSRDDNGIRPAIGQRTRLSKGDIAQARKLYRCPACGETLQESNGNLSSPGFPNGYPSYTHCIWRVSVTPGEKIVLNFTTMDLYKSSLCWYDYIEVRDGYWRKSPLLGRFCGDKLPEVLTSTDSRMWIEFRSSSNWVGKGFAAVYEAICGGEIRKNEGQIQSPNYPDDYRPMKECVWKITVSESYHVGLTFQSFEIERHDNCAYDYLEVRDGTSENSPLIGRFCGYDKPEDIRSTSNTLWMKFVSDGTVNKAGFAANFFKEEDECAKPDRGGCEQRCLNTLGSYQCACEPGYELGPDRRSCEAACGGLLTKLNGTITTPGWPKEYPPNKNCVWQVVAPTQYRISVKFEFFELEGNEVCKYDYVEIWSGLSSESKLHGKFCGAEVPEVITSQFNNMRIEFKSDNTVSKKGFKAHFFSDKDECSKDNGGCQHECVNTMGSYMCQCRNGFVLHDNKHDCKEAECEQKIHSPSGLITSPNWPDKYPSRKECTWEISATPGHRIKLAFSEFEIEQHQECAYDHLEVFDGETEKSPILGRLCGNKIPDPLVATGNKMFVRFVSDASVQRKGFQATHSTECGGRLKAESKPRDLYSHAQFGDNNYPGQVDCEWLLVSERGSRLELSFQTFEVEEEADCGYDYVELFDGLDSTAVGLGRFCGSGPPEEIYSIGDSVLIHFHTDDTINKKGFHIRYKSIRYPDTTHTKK", "experiment": "Inhibition of recombinant human full length TLL1 using ((5-FAM)-ELIDQYDVQRDDSSDGSLED-K(5,6 TAMRA)-CONH2) as substrate preincubated for 10 mins followed by substrate addition measured after 60 mins"}},
  "data": [
    {"smiles": "CCCCC[C@@H](C(=O)NCNC(=O)c1ccc(-c2ccccc2)o1)[C@@H](CC)N(O)C=O", "values": [
      {"measurement": "IC50", "setting": "Tolloid-like protein 2", "value": 0.16, "unit": "µM"},
      {"measurement": "IC50", "setting": "Tolloid-like protein 1", "value": 0.1, "unit": "µM"}
    ]}
  ]
}
